This test concerns 14C-cholesterol absorption. Conditions: 0.2 μmol/kg by gavage, C57BL/6 female mice, procedure A. Here is the method:
In Vivo Testing of Cholesterol Absorption Inhibitors (A)
C57BL/6 female mice were maintained on regular chow diet and housed in individual cages to collect faeces. Mice were fasted for 3 hours and then gavaged with vehicle or compound. Half an hour later the mice were gavaged with radiolabelled cholesterol. Six hours after the ^14C-cholesterol gavage blood samples were taken via the tail and plasma prepared to determine how much cholesterol were absorbed. 24 hours after the gavage of ^14C-cholesterol the mice were bled and plasma were prepared for analysis. Faeces were collected for 24 hours to assess absorption efficiency.

From patent US20100048529A1, “New 2-Azetidinone Derivatives Useful In The Treatment Of Hyperlipidaemic Conditions” (ASTRAZENECA AB, priority 2005, published 2010) come the findings set out here.

SMILES strings stand for the structures.

In the case of `CC(C)(c1ccccc1)[C@@H](NC(=O)CNC(=O)COc1ccc([C@@H]2[C@@H](SCC(O)c3ccc4c(c3)CCO4)C(=O)N2c2ccc(F)cc2)cc1)C(=O)NCC(=O)O` (stereo partly drawn) [Example 1, N-({4-[(2R,3R)-3-{[2-(2,3-dihydro-1-benzofuran-5-yl)-2-hydroxyethyl]thio}-1-(4-fluorophenyl)-4-oxoazetidin-2-yl]phenoxy}acetyl)glycyl-b,b-dimethyl-D-phenylalanylglycine], the “inhibition of 14C-cholesterol absorption” value was found to be 36%.
